The values below come from publication PMC11152041, “Tricarbonyl rhenium(I) complexes with 8-hydroxyquinolines: structural, chemical, antibacterial, and anticancer characteristics” (RSC Advances, 2024).

Like-named read-outs stand apart in the source and are kept apart here.

For one data set, the system named is E. coli ATCC25922. The data set can be described thus: Broth microdilution MIC/MBC (ISO 20776-1). The note with it: for MBC: E. coli ATCC25922, >99.99% reduction of growth; for MIC: E. coli ATCC25922, MH II broth, 35 °C, 24 h. In kind it is cell-based, Escherichia coli. The protocol:
(§1) Bacterial strains and cell lines were obtained from the American Type Culture Collection (ATCC).[59] […] Antimicrobial activity was tested in Müeller Hinton (MH) II broth (Becton Dickinson). For anticancer activity assay, the following reagents from Merk were used: 3-(4,5-dimethylthiazol-2-yl)-2,5-diphenyltetrazolium bromide (MTT), sodium dodecyl sulfate (SDS) and HCl. The solubilized formazan product was spectrophotometrically quantified in a Power Wave XS (Bio Tek, Winooski, VT, USA) microplate reader. The HL-60 and PC-3 cells were grown in RPMI-1640 medium with stable glutamine (Biowest) supplemented with 10% (v/v) of heat-inactivated fetal bovine serum (FBS, Biowest) and 1% (v/v) of antibiotic–antimycotic solution (Biowest). The SKOV-3 cells were grown in McCoy's 5A medium with L-glutamine (Biowest) supplemented with 10% (v/v) heat-inactivated FBS, and 1% (v/v) antibiotic–antimycotic solution. The MCF-7 cells were grown in Eagle's MEM (Minimal Essential Medium) medium with stable glutamine (Biowest), supplemented with 10% (v/v) heat-inactivated FBS 1% (v/v) MEM non-essential amino acids (Biowest), 1% (v/v) antibiotic–antimycotic solution, and 1 mM sodium pyruvate (Merck). The MCF-10A cells were grown in Ham's F-12K (Kaighn's) Medium with stable glutamine (Gibco) supplemented with 5% (v/v) heat-inactivated FBS, 1% (v/v) MEM non-essential amino acids, 1% (v/v) antibiotic–antimycotic solution, 5 μg mL^−1 insulin, 0.04 μg mL^−1 hydrocortisone (Merck), and 15 ng mL^−1 human Epidermal Growth Factor (hEGF, PeproTech).
(§2) The in vitro antibacterial activity was determined according to ISO 20776-1.[88] Among the tested microorganisms were Gram-negative rods, E. coli ATCC25922 and P. aeruginosa ATCC27853, and Gram-positive cocci, S. aureus ATCC29213 and E. faecalis ATCC29212. The selected bacterial species represented the most common etiologic agents of human infections and are used for quality control of antimicrobial susceptibility testing.[89] The test procedure included the determination of MICs and MBCs of complexes and their free ligands. MIC and MBC determinations of ciprofloxacin, as the reference antibiotic, were also performed. All compounds were dissolved in DMSO to reach the maximum 512 mg L^−1 concentration. […] The assay consisted of preparing 2-fold dilutions of the substances in a liquid growth medium MH II and inoculating them with a standardized suspension of microorganisms at a McFarland density of 0.5 (≈10^8 CFU mL^−1). The culture plates were incubated at 35 °C for 24 h. The lowest concentration of the compound inhibiting visible bacterial growth was specified as MIC, and the concentration that reduced bacterial growth by >99.99% after counting live bacteria on the plates compared to the positive control was defined as MBC.

In the next data set the test system is P. aeruginosa ATCC27853. The data set can be described thus: Broth microdilution MIC/MBC (ISO 20776-1). The data set is classed as cell-based, Pseudomonas aeruginosa. The settings on record: for MBC: P. aeruginosa ATCC27853, >99.99% reduction of growth; for MIC: P. aeruginosa ATCC27853, MH II broth, 35 °C, 24 h. As to the method: as §1, §2
Another data set has as its system S. aureus ATCC29213. The data set can be described thus: Broth microdilution MIC/MBC (ISO 20776-1). In kind it is cell-based, Staphylococcus aureus. The note with it: for MBC: S. aureus ATCC29213, >99.99% reduction of growth; for MIC: S. aureus ATCC29213, MH II broth, 35 °C, 24 h. As to the method: as §1, §2
A further data set has as its system E. faecalis ATCC29212. The data set can be described thus: Broth microdilution MIC/MBC (ISO 20776-1). The settings on record: for MBC: E. faecalis ATCC29212, >99.99% reduction of growth; for MIC: E. faecalis ATCC29212, MH II broth, 35 °C, 24 h. The data set is classed as cell-based, Enterococcus faecalis. The protocol:
as §1, §2

The next data set relates to HL-60 cells. The data set can be described thus: MTT cytotoxicity assay. The settings on record: MTT, read-out: IC50 ± SD. In kind it is cell-based, human. The protocol: (§3) The cytotoxicities for studied compounds were evaluated against leukemia cells (HL-60), as well as ovarian (SKOV-3), prostate (PC-3), and breast (MCF-7) cancer cell lines. The potential selectivity of these compounds towards cancer cells was assessed by determination of their cytotoxicities towards breast non-cancerous cells (MCF-10A). For comparison, cisplatin was added to the cytotoxicity assays.
as §1
(§4) The cells were cultured in 96-well plates and incubated with the tested compound for 24 h and 48 h. All experiments were performed in exponentially growing cultures. The 0.03 M solutions of the compounds in DMSO were appropriately diluted using culture media. The maximal final concentration of DMSO in each well was 0.1%. The cytotoxicity of the compounds was measured by determining cell viability with a colorimetric test based on 3-(4,5-dimethylthiazol-2-yl)-2,5-diphenyltetrazolium bromide (MTT). MTT stock solution was added to each well to a final concentration of 0.5 mg mL^−1 and incubated for 4 h at 37 °C; following formazan crystals were dissolved by the addition of sodium dodecyl sulfate (SDS) solution (10% SDS in 0.001 M HCl). MTT and SDS were added directly to the cell culture. The compound's IC50 values (concentration required to reduce the viability of cells by 50% compared with the control cells) were calculated from the data obtained with the MTT assay.

The subject of the next data set is MCF-7 cells. The data set can be described thus: MTT cytotoxicity assay. The settings on record: MTT, read-out: IC50 ± SD. The data set is classed as cell-based, human. The protocol:
as §3, §1, §4

The next data set deals with PC-3 cells. The data set can be described thus: MTT cytotoxicity assay. In kind it is cell-based, human. The settings on record: for IC50: MTT, read-out: IC50 ± SD. As to the method: as §3, §1, §4
In a further data set the test system is SKOV-3 cells. The data set can be described thus: MTT cytotoxicity assay. The data set is classed as cell-based, human. The note with it: MTT, read-out: IC50 ± SD. As to the method:
as §3, §1, §4

A further data set deals with MCF-10A cells. The data set can be described thus: MTT cytotoxicity assay. The note with it: for IC50: read-out: IC50 ± SD, MCF-10A (non-cancerous), MTT, * precipitation of the complex. As to the method:
as §3, §1, §4

`Cc1ncc[nH]1.[C-]#[O+].[C-]#[O+].[C-]#[O+].[Re][O]c1cccc2cccnc12` [complex 2, [Re(CO)3(Q)MeHim]]: the MBC against E. coli ATCC25922 was >512/>512 mg L^−1; with P. aeruginosa ATCC27853, >512/>512 mg L^−1; with S. aureus ATCC29213, over 512 µg/mL; in the data set on E. faecalis ATCC29212, over 512 µg/mL. Besides, the MIC against E. coli ATCC25922 is >512/>512 mg L^−1; against P. aeruginosa ATCC27853, >512/>512 mg L^−1; against S. aureus ATCC29213, 256 µg/mL; against E. faecalis ATCC29212, 128 µg/mL. Also, the concentration for half-maximal inhibition (IC50) in the data set with HL-60 cells (HL-60, 24 h) came to 10 ± 1 µM; in the data set on HL-60 cells (HL-60, 48 h) it was 9 ± 1 µM; in the data set with MCF-7 cells (MCF-7, 24 h) it was 36 ± 3 µM; in the data set with MCF-7 cells (MCF-7, 48 h), 30 ± 1 µM; with PC-3 cells (PC-3, 24 h), 34 ± 3 µM; with PC-3 cells (PC-3, 48 h), 35 ± 2 µM. Besides, the IC50 with SKOV-3 cells (SKOV-3, 24 h) was over 100 µM; in the data set on SKOV-3 cells (SKOV-3, 48 h) it was 44 ± 1 µM; with MCF-10A cells (24 h), 31 ± 4 µM; in the data set with MCF-10A cells (48 h), 29 ± 5 µM.
In the case of `[C-]#[O+].[C-]#[O+].[C-]#[O+].[Re][O]c1cccc2cccnc12.c1ccc(-c2ccn[nH]2)cc1` [complex 4, [Re(CO)3(Q)HPhpz]·0.5CH3CN], the minimal bactericidal concentration (MBC) against E. coli ATCC25922 is >512/>512 mg L^−1; in the data set on P. aeruginosa ATCC27853, >512/>512 mg L^−1; with S. aureus ATCC29213 it was over 512 µg/mL; in the data set on E. faecalis ATCC29212 it was over 512 µg/mL. Further, the MIC against E. coli ATCC25922 is >512/>512 mg L^−1; against P. aeruginosa ATCC27853, >512/>512 mg L^−1; with S. aureus ATCC29213 it was 256 µg/mL; in the data set with E. faecalis ATCC29212, 32 µg/mL. The IC50 in the data set on HL-60 cells (HL-60, 24 h) worked out at 9 ± 1 µM; in the data set on HL-60 cells (HL-60, 48 h), 9 ± 1 µM; in the data set with MCF-7 cells (MCF-7, 24 h), 73 ± 3 µM; with MCF-7 cells (MCF-7, 48 h), 50 ± 3 µM; in the data set on PC-3 cells (PC-3, 24 h), 42 ± 6 µM; in the data set on PC-3 cells (PC-3, 48 h), 27 ± 3 µM. Also, the IC50 is over 100 µM in the data set on SKOV-3 cells (SKOV-3, 24 h); 81 ± 9 µM in the data set on SKOV-3 cells (SKOV-3, 48 h); 50 ± 5 µM in the data set on MCF-10A cells (24 h); 36 ± 4 µM in the data set with MCF-10A cells (48 h).
`Cc1ccc2cccc([O][Re])c2n1.[C-]#[O+].[C-]#[O+].[C-]#[O+].c1c[nH]cn1` [complex 5, [Re(CO)3(MeQ)Him]]: the minimum bactericidal concentration (MBC) against E. coli ATCC25922 was 16/16 mg L^−1; in the data set on P. aeruginosa ATCC27853 it was 64 mg/L; against S. aureus ATCC29213, 512 µg/mL; in the data set with E. faecalis ATCC29212, over 512 µg/mL. In addition, the MIC was 16/16 mg L^−1 in the data set on E. coli ATCC25922, 16 mg/L in the data set with P. aeruginosa ATCC27853, 16 µg/mL against S. aureus ATCC29213 and 32 µg/mL in the data set with E. faecalis ATCC29212. Further, in the data set with E. coli ATCC25922 (E. coli, compared with MeHQ), the “fold decline of MBC compared to the free ligand” value worked out at 5 fold. In addition, the “fold better activity than the free MeHQ ligand” value with P. aeruginosa ATCC27853 (P. aeruginosa, MIC/MBC compared with MeHQ) worked out at 4 fold. Besides, the “fold increase of MBC compared to the free ligand” value in the data set with E. faecalis ATCC29212 (E. faecalis, compared with MeHQ) is 4 fold. In addition, the IC50 in the data set on HL-60 cells (HL-60, 24 h) was found to be 11 ± 2 µM; in the data set with HL-60 cells (HL-60, 48 h), 4 ± 1 µM; with MCF-7 cells (MCF-7, 24 h) it was 47 ± 7 µM; in the data set with MCF-7 cells (MCF-7, 48 h), 43 ± 6 µM; in the data set on PC-3 cells (PC-3, 24 h), 11 ± 3 µM; in the data set with PC-3 cells (PC-3, 48 h), 28 ± 6 µM. In addition, the IC50 is 31 ± 5 µM in the data set on SKOV-3 cells (SKOV-3, 24 h); 26 ± 11 µM in the data set on SKOV-3 cells (SKOV-3, 48 h); 50 ± 2 µM in the data set on MCF-10A cells (24 h); over 50 µM with MCF-10A cells (48 h). Besides, in the data set with PC-3 cells (PC-3, IC50 48 h versus 24 h), the “times lower effect after 48 h than after 24 h” value is given as “about 2.5 times”. For the same compound, the “solubility in the cytotoxicity assay” value in the data set on MCF-10A cells (MCF-10A cell line culture medium) is listed as “precipitated at higher concentrations”.
Take `Cc1ccc2cccc([O][Re])c2n1.Cc1ncc[nH]1.[C-]#[O+].[C-]#[O+].[C-]#[O+]` [complex 6, [Re(CO)3(MeQ)MeHim]]: the MBC against E. coli ATCC25922 was >512/>512 mg L^−1; in the data set on P. aeruginosa ATCC27853, >512/>512 mg L^−1; in the data set with S. aureus ATCC29213, 512 µg/mL; in the data set on E. faecalis ATCC29212, 256 µg/mL. In addition, the MIC against E. coli ATCC25922 is >512/>512 mg L^−1; with P. aeruginosa ATCC27853, >512/>512 mg L^−1; against S. aureus ATCC29213 it was 64 µg/mL; against E. faecalis ATCC29212 it was 64 µg/mL. The half-maximal inhibitory concentration (IC50) with HL-60 cells (HL-60, 24 h) is 14 ± 1 µM; in the data set on HL-60 cells (HL-60, 48 h), 9 ± 1 µM; in the data set on MCF-7 cells (MCF-7, 24 h), 44 ± 1 µM; with MCF-7 cells (MCF-7, 48 h), 35 ± 6 µM; in the data set on PC-3 cells (PC-3, 24 h) it was 54 ± 7 µM; with PC-3 cells (PC-3, 48 h) it was 22 ± 5 µM. Further, the IC50 in the data set on SKOV-3 cells (SKOV-3, 24 h) was 32 ± 7 µM; in the data set with SKOV-3 cells (SKOV-3, 48 h) it was 30 ± 9 µM; with MCF-10A cells (24 h) it was 66 ± 1 µM; in the data set on MCF-10A cells (48 h) it was 35 ± 1 µM.
